Conditions in the first data set: not given
As to `CCc1cc(C)c(C)cc1C`, the boiling point turned out to be 213 °C and the melting point was -13.5 °C.
As to `CCN(CC)C(=O)[C@@H]1C=C2c3cccc4[nH]cc(c34)C[C@H]2N(C)C1`, the melting point stood at 82.5 °C.
In the case of `CC(C)=CCl`, the boiling point is 68 °C.
Turning to `Clc1cc2c(c(Cl)c1Cl)Oc1c(cc(Cl)c(Cl)c1Cl)O2`, the log10 Koa is 11, the log10 vapour pressure (mmHg) is -10.3 and the melting point is 243 °C.
In the case of `O=S(=O)(O)CCCNC1CCCCC1`, the melting point was 302 °C.
Molecule `NCC(F)(F)F` had a boiling point of 37.5 °C.
The molecule `CCC(CC)C(=O)OC` yielded a boiling point of 137 °C.
Take `CCCCCCC(=O)OC(=O)CCCCCC`: the boiling point was 270 °C and the melting point is -12.4 °C.
Take `COC(=O)c1ccccc1O[C@@H]1O[C@H](CO[C@@H]2OC[C@@H](O)[C@H](O)[C@H]2O)[C@@H](O)[C@H](O)[C@H]1O`: the melting point was 180 °C.
On to `Cc1c[nH]c2ccccc12`, for which the boiling point was 266 °C, the log10 vapour pressure (mmHg) is -2.26 and the melting point was 97.5 °C.
On to `CC(C)(C)C(C)(C)Cl`, for which the melting point came out at 136 °C.
Regarding `CC(=O)c1ccc(O)c(O)c1O`, the melting point is 173 °C.
On to `CCCCC=C(C)C`, for which the boiling point worked out at 123 °C and the log10 vapour pressure (mmHg) came to 1.25.
For `Cc1cc2nc3c(=O)[nH]c(=O)nc-3n(C[C@H](O)[C@H](O)[C@H](O)CO)c2cc1C`, the ready biodegradability entry is “not readily biodegradable”.
Regarding `c1ccc2nc3ccccc3cc2c1`, the boiling point worked out at 346 °C, the log10 Koc (L/kg) was found to be 4.18, the log10 vapour pressure (mmHg) was -3.87 and the melting point amounted to 108 °C.
Consider `CCC=CC(C)C`, for which the log10 vapour pressure (mmHg) was 1.88.
In turn, `CN1C(=O)c2ccc([N+](=O)[O-])cc2C1=O` returned a boiling point of 361 °C.
With `Cc1occc1C(=O)Nc1ccccc1`, the log10 Koc (L/kg) amounted to 2.48, the log10 vapour pressure (mmHg) was -6.82 and the melting point turned out to be 110 °C.
`CC1=NN(c2ccccc2)C(=O)C1`: the melting point came to 129 °C.
On to `CCCOc1ccccc1`, for which the boiling point is 190 °C and the melting point is -27 °C.
Take `CCCCCCCCCCOc1c(OC)cc(C(N)=O)cc1OC`: the melting point is 122 °C.
As for `CC(C)CO[N+](=O)[O-]`, the boiling point stood at 123 °C, the log10 Henry constant (atm·m³/mol) is -2.65 and the log10 vapour pressure (mmHg) came out at 0.919.
Turning to `O=C(OOC(=O)c1ccc(Cl)cc1Cl)c1ccc(Cl)cc1Cl`, the melting point amounted to 106 °C and the ready biodegradability result is “not readily biodegradable”.
For `Cc1[nH]c(=O)n(C(C)C)c(=O)c1Br`, the log10 Koc (L/kg) came out at 2.11 and the melting point was 158 °C.
Molecule `COc1ccc(CCl)cc1` showed a boiling point of 262 °C and a melting point of 24.5 °C.
For the molecule `CCCCCCCCCCCCCCCC(=O)OC[C@H](COP(=O)([O-])OCC[N+](C)(C)C)OC(=O)CCCCCCCCCCCCCCC`, the melting point was found to be 234 °C.
For `CBr`, the boiling point is 3.5 °C, the log10 Henry constant (atm·m³/mol) was -2.13, the log10 Koc (L/kg) came out at 1.34 and the log10 vapour pressure (mmHg) was 3.21. For the same molecule, the melting point is -93.7 °C and the ready biodegradability entry is listed as “not readily biodegradable”.
As to `CC(C)Oc1cc(-n2nc(C(C)(C)C)oc2=O)c(Cl)cc1Cl`, the log10 Koc (L/kg) stood at 3.51, the log10 vapour pressure (mmHg) is -6.95, the melting point amounted to 90 °C and the ready biodegradability result is listed as “not readily biodegradable”.
For the molecule `CCNCCN(C)C`, the boiling point turned out to be 134 °C.
In the case of `CCOC(=O)C(C)=O`, the boiling point is 155 °C and the melting point was -50 °C.
Take `C=C1C2CCC3C(CCC4C35CCC[C@]4(C)CN3CCO[C@H]35)(C2)[C@H]1O` (stereo partly specified): the melting point was 120 °C.
On to `CCCCCCCCCCCCCC[N+](C)(C)Cc1ccccc1`, for which the ready biodegradability result was “not readily biodegradable”.
On to `C=CC(OC(C)=O)OC(C)=O`, for which the boiling point came out at 180 °C, the melting point was -37.6 °C and the ready biodegradability result is “readily biodegradable”.
In turn, `Clc1ccc(Cc2ccccc2)cc1` gave a boiling point of 299 °C and a melting point of 7.5 °C.
Take `CC1=CC[C@@H]2[C@H]3[C@@H](C(C)C)CC[C@]2(C)[C@@H]13`: the boiling point came to 248 °C.
Turning to `CCC(=O)C=Cc1ccccc1`, the melting point is 38.5 °C.
For `CCCCC(C)=O`, the boiling point stood at 128 °C, the log10 Koa came to 3.68, the log10 vapour pressure (mmHg) amounted to 1.06 and the melting point is -55.5 °C. The ready biodegradability entry is listed as “not readily biodegradable”.

Staying with this data set, now noted: fish.
`Clc1cc2c(c(Cl)c1Cl)Oc1c(cc(Cl)c(Cl)c1Cl)O2` registered a log10 BCF of 3.92 and a log10 biotransformation half-life (days) of 1.3.
The molecule `c1ccc2nc3ccccc3cc2c1` had a log10 BCF of 2.1.
Take `CC(C)Oc1cc(-n2nc(C(C)(C)C)oc2=O)c(Cl)cc1Cl`: the log10 BCF is 3.08 and the log10 biotransformation half-life (days) stood at 0.77.
